In US4107424A, “1-N-[(S)-α-hydroxy-ω-aminoacyl] derivatives of 3',4'-dideoxykanamycin B and 3'-deoxykanamycin B antibiotics” (Zaidan Hojin Biseibutsu Kagaku Kenkyu Kai, priority 1972, dated 1978):
Values after ≈ are worked out from the molar mass of the structure shown. Where two headings read alike, the source gives them in different places.

Experiments:
[1] = system: Escherichia coli K-12 ML 1410 R 81; assay: Minimal inhibitory concentration, agar dilution streak method; type: cell-based; conditions: 18 h
Protocol: (§1) *Agar Agar dilution streak method (nutrient agar, 37° C, 18 hours)
(§2) *Agar dilution streak method (nutrient agar, 37° C, 18 hours).

[2] = system: Pseudomonas aeruginosa No.12; assay: as above; type: cell-based; conditions: nutrient agar, 37° C, 18 hours
Protocol: as §1, §2

[3] = system: Escherichia coli K-12 LA 290 R 55; assay: as above; type: cell-based; conditions: 18 h
Protocol: as §1, §2

[4] = system: Staphylococcus aureus FDA 209P; assay: as above; type: cell-based; conditions: FDA209P, nutrient agar, 37° C, 18 hours
Protocol: as §1, §2

[5] = system: Escherichia coli K-12; assay: as above; type: cell-based; conditions: K12, nutrient agar, 37° C, 18 hours
Protocol: as §1, §2

[6] = system: Escherichia coli K-12 LA 290 R 56; assay: as above; type: cell-based; conditions: 18 h
Protocol: as §1, §2

[7] = system: Escherichia coli K-12 ML 1630; assay: as above; type: cell-based; conditions: K12ML1630, nutrient agar, 37° C, 18 hours
Protocol: as §1, §2

[8] = system: Escherichia coli K-12 JR 66/W 677; assay: as above; type: cell-based; conditions: for MIC: Escherichia coli, 18 h
Protocol: as §1, §2

[9] = system: Escherichia coli K-12 W 677; assay: as above; type: cell-based; conditions: K12W677, nutrient agar, 37° C, 18 hours
Protocol: as §1, §2

[10] = system: Pseudomonas aeruginosa TI-13; assay: as above; type: cell-based; conditions: TI13, nutrient agar, 37° C, 18 hours
Protocol: as §1, §2

[11] = system: Escherichia coli K-12 ML 1410; assay: as above; type: cell-based; conditions: K12ML1410, nutrient agar, 37° C, 18 hours
Protocol: as §1, §2

[12] = system: Pseudomonas aeruginosa A 3; assay: as above; type: cell-based; conditions: A3, nutrient agar, 37° C, 18 hours
Protocol: as §1, §2

[13] = system: Escherichia coli K-12 ML 1629; assay: as above; type: cell-based; conditions: K12ML1629, nutrient agar, 37° C, 18 hours
Protocol: as §1, §2

[14] = system: Escherichia coli K-12 LA 290 R 64; assay: as above; type: cell-based; conditions: nutrient agar, 37° C, 18 hours
Protocol: as §1, §2

[15] = system: mice; assay: Acute intravenous toxicity (LD50) in mice; conditions: in words
[16] = in vivo; conditions: mouse, iv
[17] = system: gram-positive and gram-negative bacteria; assay: Antibacterial activity (in words); type: cell-based; conditions: for antibacterial activity compared with parent or reference substance: sensitive (and resistant) bacteria; for antibacterial activity: various gram-positive and gram-negative bacteria, including resistant strains
Protocol: (§3) [α]D^22 + 38°, (c 0.85, water).

[18] = system: Pseudomonas aeruginosa 99; assay: Minimal inhibitory concentration, agar dilution streak method; type: cell-based; conditions: nutrient agar, 37° C, 18 hours
Protocol: as §3, §1, §2

[19] = system: Klebsiella pneumoniae type 22 #3038; assay: as above; type: cell-based; conditions: for MIC: Klebsiella pneumoniae, nutrient agar, 37° C, 18 hours
Protocol: as §1, §2

[20] = system: Pseudomonas aeruginosa GN 315; assay: as above; type: cell-based; conditions: GN315, nutrient agar, 37° C, 18 hours, read-out: Minimal inhibitory concentration
Protocol: as §1, §2

[21] = system: Salmonella typhosa T-63; assay: as above; type: cell-based; conditions: Salmonella enterica, nutrient agar, 37° C, 18 hours
Protocol: as §3, §1, §2

[22] = system: Sarcina lutea PCI 1001; assay: as above; type: cell-based; conditions: Micrococcus luteus, PCI1001; nutrient agar, 37° C, 18 hours; read-out: Minimal inhibitory concentration
Protocol: as §3, §1, §2

[23] = system: Escherichia coli J 5 R 11-2; assay: as above; type: cell-based; conditions: J5R112, 18 h, read-out: Minimal inhibitory concentration
Protocol: as §3, §1, §2

[24] = system: Proteus rettgeri GN 311; assay: as above; type: cell-based; conditions: Providencia rettgeri, GN311; nutrient agar, 37° C, 18 hours
Protocol: as §3, §1, §2

[25] = system: Escherichia coli NIHJ; assay: as above; type: cell-based; conditions: nutrient agar, 37° C, 18 hours
Protocol: as §3, §1, §2

[26] = system: Escherichia coli K-12 R-5; assay: as above; type: cell-based; conditions: K12R5, nutrient agar, 37° C, 18 hours
Protocol: as §3, §1, §2

[27] = system: Escherichia coli K-12 C 600 R 135; assay: as above; type: cell-based; conditions: 18 h, read-out: Minimal inhibitory concentration
Protocol: as §3, §1, §2

[28] = system: Proteus rettgeri GN 466; assay: as above; type: cell-based; conditions: Providencia rettgeri, GN466; nutrient agar, 37° C, 18 hours
Protocol: as §3, §1, §2

[29] = system: Bacillus subtilis NRRL B-558; assay: as above; type: cell-based; conditions: NRRLB558, nutrient agar, 37° C, 18 hours
Protocol: as §3, §1, §2

[30] = system: Klebsiella pneumoniae PCI 602; assay: as above; type: cell-based; conditions: PCI602, nutrient agar, 37° C, 18 hours
Protocol: as §3, §1, §2

[31] = system: Mycobacterium smegmatis ATCC 607; assay: as above; type: cell-based; conditions: Mycolicibacterium smegmatis, ATCC607; nutrient agar, 37° C, 48 hours; read-out: Minimal inhibitory concentration
[32] = read-out: minimum inhibitory concentrations
[33] = read-out: Minimal inhibitory concentration
[34] = strain resistant to butirosin B

**Q.** For NCC[C@H](O)C(=O)N[C@@H]1C[C@H](N)[C@@H](O[C@H]2O[C@H](CN)CC[C@H]2N)[C@H](O)[C@H]1O[C@H]1O[C@H](CO)[C@@H](O)[C@H](N)[C@H]1O [AHB-dideoxykanamycin B, 1-N-[(S)-4-amino-2-hydroxy-n-butyryl]-3',4'-dideoxykanamycin B], which MIC [1, 32] is on record?
**A.** 1.56 µg/mL (≈ 2.82 µM)

**Q.** What about the MIC [2, 32] of the same compound?
**A.** 1.56 µg/mL (≈ 2.82 µM)

**Q.** What about the MIC [3, 32] of the same compound?
**A.** 0.78 µg/mL (≈ 1.41 µM)

**Q.** What about the MIC [4, 32] of the same compound?
**A.** 0.78 µg/mL (≈ 1.41 µM)

**Q.** And the MIC [5, 32]?
**A.** 0.78 µg/mL (≈ 1.41 µM)

**Q.** What about the MIC [6, 32] of the same compound?
**A.** 0.39 µg/mL (≈ 0.706 µM)

**Q.** And the MIC [7, 32]?
**A.** 0.78 µg/mL (≈ 1.41 µM)

**Q.** What about the MIC [8, 32] of the same compound?
**A.** 1.56 µg/mL (≈ 2.82 µM)

**Q.** And the MIC [9, 32]?
**A.** 0.39 µg/mL (≈ 0.706 µM)

**Q.** And the MIC [10, 32]?
**A.** 3.12 µg/mL (≈ 5.65 µM)

**Q.** What about the MIC [11, 32] of the same compound?
**A.** 0.78 µg/mL (≈ 1.41 µM)

**Q.** What about the MIC [12, 32] of the same compound?
**A.** 3.12 µg/mL (≈ 5.65 µM)

**Q.** And the MIC ([13]; drug-resistant strain, read-out: minimum inhibitory concentrations)?
**A.** 0.78 µg/mL (≈ 1.41 µM)

**Q.** And the MIC [14, 32]?
**A.** 0.78 µg/mL (≈ 1.41 µM)

**Q.** What about the toxicity [15] of the same compound?
**A.** toxicity as low as that of kanamycin

**Q.** And the LD50 [16]?
**A.** > 150 mg/kg

**Q.** And the “antibacterial activity compared with parent or reference substance” value [17]?
**A.** stronger antibacterial activity than those of kanamycin A and 3',4'-dideoxykanamycin B

**Q.** And the antibacterial activity [17]?
**A.** high antibacterial activity against drug-resistant strains such as Staphylococcus aureus, Escherichia coli and Pseudomonas aeruginosa strains which are resistant to kanamycin and DKB

**Q.** And the MIC [18, 32]?
**A.** 12.5 µg/mL (≈ 22.6 µM)

**Q.** Which MIC [2, 33] does the source give for NCC[C@H](O)C(=O)N[C@@H]1C[C@H](N)[C@@H](O[C@H]2O[C@H](CN)CC[C@H]2N)[C@H](O)[C@H]1O [AHB-dideoxyneamine, 1-N-[(S)-4-amino-2-hydroxybutyryl]-3',4'-dideoxyneamine] here?
**A.** 6.25 µg/mL (≈ 16 µM)

**Q.** What about the MIC [3, 33] of the same compound?
**A.** 3.12 µg/mL (≈ 7.97 µM)

**Q.** What about the MIC [6, 33] of the same compound?
**A.** 3.12 µg/mL (≈ 7.97 µM)

**Q.** What about the MIC [7, 33] of the same compound?
**A.** 3.12 µg/mL (≈ 7.97 µM)

**Q.** What about the MIC [8, 33] of the same compound?
**A.** 12.5 µg/mL (≈ 31.9 µM)

**Q.** What about the MIC [9, 33] of the same compound?
**A.** 3.12 µg/mL (≈ 7.97 µM)

**Q.** What about the MIC [19] of the same compound?
**A.** 12.5 µg/mL (≈ 31.9 µM)

**Q.** And the MIC [10, 33]?
**A.** 6.25 µg/mL (≈ 16 µM)

**Q.** And the MIC [12, 33]?
**A.** 6.25 µg/mL (≈ 16 µM)

**Q.** And the MIC [20]?
**A.** > 100 µg/mL

**Q.** What about the MIC [13, 33] of the same compound?
**A.** 3.12 µg/mL (≈ 7.97 µM)

**Q.** And the MIC [14, 33]?
**A.** 3.12 µg/mL (≈ 7.97 µM)

**Q.** And the toxicity [15]?
**A.** lower toxicity to animals and men

**Q.** What about the LD50 [16] of the same compound?
**A.** > 100 mg/kg

**Q.** What about the “antibacterial activity compared with parent or reference substance” value [17] of the same compound?
**A.** higher antibacterial activity than that of the parent substance, 3',4'-dideoxyneamine, against both sensitive and resistant bacteria

**Q.** What about the antibacterial activity [17] of the same compound?
**A.** exhibits a antibacterial activity against various gram-positive and gram-negative bacteria, including the kanamycin-resistant strains

**Q.** What about the MIC [21] of the same compound?
**A.** 1.56 µg/mL (≈ 3.98 µM)

**Q.** What about the MIC [22] of the same compound?
**A.** 25 µg/mL (≈ 63.9 µM)

**Q.** And the MIC [23]?
**A.** 6.25 µg/mL (≈ 16 µM)

**Q.** And the MIC [24]?
**A.** 25 µg/mL (≈ 63.9 µM)

**Q.** What about the MIC [18, 33] of the same compound?
**A.** 25 µg/mL (≈ 63.9 µM)

**Q.** And the MIC [25]?
**A.** 3.12 µg/mL (≈ 7.97 µM)

**Q.** What about the MIC [26] of the same compound?
**A.** 50 µg/mL (≈ 128 µM)

**Q.** What about the MIC [27] of the same compound?
**A.** 12.5 µg/mL (≈ 31.9 µM)

**Q.** What about the MIC [28] of the same compound?
**A.** 12.5 µg/mL (≈ 31.9 µM)

**Q.** What about the MIC [29] of the same compound?
**A.** < 0.39 µg/mL

**Q.** What about the MIC [30] of the same compound?
**A.** 6.25 µg/mL (≈ 16 µM)

**Q.** What about the MIC [31] of the same compound?
**A.** 6.25 µg/mL (≈ 16 µM)

**Q.** Which results are given for NCC[C@H](O)C(=O)N[C@@H]1C[C@H](N)[C@@H](O[C@H]2O[C@H](CN)CC[C@H]2N)[C@H](O[C@@H]2O[C@H](CO)[C@@H](O)[C@H]2O)[C@H]1O [AHB-dideoxyribostamycin, 1-N-[(S)-4-amino-2-hydroxybutyryl]-3',4'-dideoxyribostamycin]?
**A.** MIC [1, 33]: 1.56 µg/mL (≈ 2.98 µM); MIC [2, 33]: 6.25 µg/mL (≈ 11.9 µM); MIC [3, 33]: 1.56 µg/mL (≈ 2.98 µM); MIC [4, 33]: 1.56 µg/mL (≈ 2.98 µM); MIC [5, 33]: 1.56 µg/mL (≈ 2.98 µM); MIC [6, 33]: < 0.39 µg/mL; MIC [7, 33]: 0.78 µg/mL (≈ 1.49 µM); effectiveness against Escherichia coli K-12 JR 66/W 677 [8, 34]: effective; MIC [9, 33]: 0.78 µg/mL (≈ 1.49 µM); MIC [19]: 3.12 µg/mL (≈ 5.96 µM); effectiveness against Klebsiella pneumoniae type 22 #3038 [19, 34]: effective; MIC [10, 33]: 12.5 µg/mL (≈ 23.9 µM); MIC [11, 33]: 0.78 µg/mL (≈ 1.49 µM); MIC [12, 33]: 6.25 µg/mL (≈ 11.9 µM); MIC [20]: > 100 µg/mL; MIC [13, 33]: 1.56 µg/mL (≈ 2.98 µM); MIC [14, 33]: 1.56 µg/mL (≈ 2.98 µM); LD50 [16]: > 100 mg/kg; antibacterial activity compared with parent or reference substance [17]: strongly enhanced antibacterial activity as compared with that of ribostamycin and 3',4'-dideoxyribostamycin and was comparable to that of butirosin B; MIC [21]: 0.39 µg/mL (≈ 0.745 µM); MIC [22]: 25 µg/mL (≈ 47.7 µM); MIC [23]: < 0.39 µg/mL; MIC [24]: 12.5 µg/mL (≈ 23.9 µM); MIC [18, 33]: 25 µg/mL (≈ 47.7 µM); MIC [25]: 1.56 µg/mL (≈ 2.98 µM); MIC [26]: 6.25 µg/mL (≈ 11.9 µM); MIC [27]: 0.78 µg/mL (≈ 1.49 µM); MIC [28]: 3.12 µg/mL (≈ 5.96 µM); MIC [29]: < 0.39 µg/mL; MIC [30]: 0.78 µg/mL (≈ 1.49 µM); MIC [31]: < 0.39 µg/mL
